Data from ChEMBL document CHEMBL4266060, “Structure-Property Relationship Studies of Influenza A Virus AM2-S31N Proton Channel Blockers” (ACS Med Chem Lett, 2018).

tested on: Matrix protein 2 (Influenza A virus (A/Udorn/307/1972(H3N2))), P0DOF8 [S31N]; test: Inhibition of Influenza A virus AM2 S31N mutant expressed in xenopus laevis frog oocytes assessed as inhibition of channel current at 100 uM after 2 mins by two-electrode voltage clamp assay relative to control; format: cell-based

For Brc1ccc(CNC23CCC4CC(CC(C4)C2)C3)s1, which inhibition is on record?
The inhibition was 72.6%.

Which inhibition does the source give for COc1ccc(-c2ccc(CNC34CC5CC(CC(O)(C5)C3)C4)s2)cc1OC here?
Its inhibition is 37.6%.

For COC(=O)c1ccc(-c2ccc(CNC34CC5CC(CC(O)(C5)C3)C4)s2)cc1, which inhibition is on record?
The inhibition was 64.3%.

Which inhibition does the source give for COc1ncc(-c2ccc(CNC34CC5CC(CC(O)(C5)C3)C4)s2)cn1 here?
Its inhibition is 4.4%.

How did the inhibition turn out when OC12CC3CC(C1)CC(NCc1csc(Br)c1)(C3)C2 was run?
Its inhibition is 48.3%.

OC12CC3CC(C1)CC(NCc1ccc(-c4ccccc4)s1)(C3)C2 was tested. Which inhibition did it give?
The inhibition was 84.6%.

How did the inhibition turn out when Brc1ccc(CNC23CC4CC(CC(C4)C2)C3)[se]1 was run?
Its inhibition is 70.6%.

OC12CC3CC(C1)CC(NCc1ccc(Br)s1)(C3)C2 was tested. Which inhibition did it give?
The inhibition was 64.7%.

With OC12CC3CC(C1)CC(NCc1nc(Br)cs1)(C3)C2 as the compound, how does the inhibition read?
Its inhibition is 36%.

Which inhibition does the source give for OC12CC3CC(C1)CC(NCc1cnc(Br)s1)(C3)C2 here?
Its inhibition is 33.5%.

OC12CC3CC(C1)CC(NCc1ccc(-c4ccccc4Cl)s1)(C3)C2 was tested. Which inhibition did it give?
The inhibition was 78.7%.

Which inhibition does the source give for c1csc(-c2ccc(CNC34CC5CC(CC(C5)C3)C4)s2)c1 here?
Its inhibition is 86.1%.

OC12CC3CC(C1)CC(NCc1ccc(I)s1)(C3)C2 was tested. Which inhibition did it give?
The inhibition was 75.6%.

With CSc1ccccc1-c1ccc(CNC23CC4CC(CC(O)(C4)C2)C3)s1 as the compound, how does the inhibition read?
The inhibition was 73.4%.

Which inhibition does the source give for OC12CC3CC(C1)CC(NCc1cc(Br)cs1)(C3)C2 here?
The inhibition was 56.6%.

Which inhibition does the source give for COc1ccc(-c2ccc(CNC34CC5CC(CC(O)(C5)C3)C4)s2)cn1 here?
The inhibition was 68.3%.

How did the inhibition turn out when OC12CC3CC(C1)CC(NCc1ccc(-c4ccc(F)cc4F)s1)(C3)C2 was run?
The inhibition was 74.5%.

Ic1ccc(CNC23CC4CC(CC(C4)C2)C3)s1 was tested. Which inhibition did it give?
The inhibition was 78.5%.
